Measured values published in patent US9227982B2 (NOVARTIS AG, priority 2011, dated 2016).

Assays:
[1] = target: human tankyrase 1 PARP catalytic domain, TNKS1P (Homo sapiens (Human), UniProt O95271); assay: TNKS1 autoparsylation enzymatic assay (LC/MS detection of nicotinamide); assay type: biochemical; conditions: 20 nM enzyme, 250 μM β-NAD+, 60 min, read-out: TNKS1 AP IC50
Text: (§1) The human tankyrase 1 PARP catalytic domain, TNKS1P, was cloned into a pDONR221 vector using the Invitrogen Gateway Technology. This entry clone was then subcloned into the destination vector pDEST20 to obtain the N-terminal Glutathione S-transferase (GST)-tagged fusion protein. GST-TNKS1P was then expressed in Sf21 cells using the Invitrogen baculovirus expression system (Invitrogen-Bac-to-Bac® Baculovirus Expression System, Version D). The protein was purified by a GSTrap column (GE Healthcare). The N-terminal GST-tagged tankyrase 2 protein PARP domain, TNKS2P, was cloned, expressed, and purified in a similar manner. Human PARP1 (Cat. No. 4668-100-01) and activated DNA (Cat. No. 4671-096-06) were purchased from Trevigen, Inc. PARP2 (Cat. No. ALX-201-064-C020) was purchased from Alexis Biochemical.
The % Inhibition was calculated as: (Control−Sample)/(Control−Background)*100. “Control” is the average value of 8 wells without compound; and “Background” is the average of 8 wells mixed with 5× quenching solution measured prior to initiation of the reaction.

[2] = test system: Non-small lung cancer ABC-1 cells; assay: Cellular proliferation assay (CellTiter-Glo) in ABC-1 cells; assay type: cell-based; conditions: Homo sapiens, 72 h, 3 days of compound treatment
Protocol: Cellular Proliferation Assay to Determine Compound Inhibition of Cancer Cell Growth
Non-small lung cancer ABC-1 cells were plated at 5000 cells per well in 96-well plates and treated with 8 serial compound dilutions starting from 10 μM as the highest concentration. Viable cells were measured after 3 days of compound treatment using the CellTiter-Glo assay (Promega, G7570). Assay was performed following the manufacture protocol.

Axin2 protein = assay: Cellular ELISA assay of Axin2 protein stabilization in SW480 cells; assay type: cell-based; conditions: Homo sapiens, 24 hrs treatment, read-out: Axin AC50
Protocol: Cellular ELISA Assay to Determine Compound Effect on Stabilizing the Axin2 Protein
Compound activity in stabilizing the Axin2 protein was measured by Sandwich Enzyme-Linked Immuosorbent (ELISA) assay in the colorectal cell line SW480. 30,000 SW480 cells were seeded per well in 96-well plate and incubated overnight prior to compound treatment. Cells were then treated with compounds in 6-point dilution starting at 10 μM for 24 hrs. Cells were then washed with 100 μL of cold Phosphate Buffer Saline (PBS), and lysed in 125 μl of cold 1× lysis buffer (Cell Signaling Technology, 9803) supplemented with Protease inhibitor (Roche, 11836170) and Phosphatase inhibitors (Sigma, P2850, P5726). For the ELISA assay, anti Axin-2 capture antibody (Strategic Diagnostics) antibody was diluted to a concentration of 1 μg/ml (1:1000) in Carbonate Coating buffer, pH 9.2 (Sigma, C3041-50CAP). 100μ of the diluted anti Axin-2 capture antibody per well was then used to coat the 96-well ELISA plate (Thermo Electron Corp., MicroLite 1 flat bottom plate #7571) overnight at 4° C. Plates were then washed three times with 300 of wash solution, PBST20 (PBS+0.05% Tween), and blocked with 300 μl/well 1% BSA/PBS (BSA, Millipore Probumin #82-045-1) for 1.5 hours at room temperature while shaking gently. After blocking, plates were then washed three times with 300 of wash solution. 100 μL of prepared SW480 cell lysate was then added to each well and incubated at room temperature for 2 hours while shaking gently. After washing, 100 μL of Biotinylated anti-Axin2 antibody (CST, 2151) was added to each well and incubated room temperature for 2 hours. 100 μL of Streptavidin-HRP (R&D systems, DY998) diluted 1:200 in 1% BSA/PBS was then added in each well and incubate for 30 mins at R/T in the dark.

[3] = test system: Herpes Simplex Virus (HSV); conditions: cited from earlier work
PARP2 = PARP2 (Mus musculus (Mouse), UniProt O88554); assay: PARP2 autoparsylation enzymatic assay (LC/MS detection of nicotinamide); assay type: biochemical; conditions: 20 nM enzyme, 250 μM β-NAD+, 60 min
Chain of PARP2 (O88554 whole entry): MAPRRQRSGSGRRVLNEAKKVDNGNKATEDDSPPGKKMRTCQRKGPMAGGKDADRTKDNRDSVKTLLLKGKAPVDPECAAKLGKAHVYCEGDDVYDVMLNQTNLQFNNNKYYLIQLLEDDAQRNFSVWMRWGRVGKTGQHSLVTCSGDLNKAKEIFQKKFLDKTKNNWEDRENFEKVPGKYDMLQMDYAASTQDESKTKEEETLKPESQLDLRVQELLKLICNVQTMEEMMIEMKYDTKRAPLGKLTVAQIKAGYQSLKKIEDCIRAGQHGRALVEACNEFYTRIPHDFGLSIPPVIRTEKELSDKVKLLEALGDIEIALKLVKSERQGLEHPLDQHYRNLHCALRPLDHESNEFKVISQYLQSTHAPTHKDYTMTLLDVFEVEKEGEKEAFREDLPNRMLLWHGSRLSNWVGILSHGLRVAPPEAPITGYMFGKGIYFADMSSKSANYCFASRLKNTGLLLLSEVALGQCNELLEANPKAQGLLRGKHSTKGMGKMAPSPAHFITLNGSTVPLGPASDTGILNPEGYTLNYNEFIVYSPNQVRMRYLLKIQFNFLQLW
Text: as §1, with “manner.” for “manner. Human PARP1 (Cat. No. 4668-100-01) and activated DNA (Cat. No. 4671-096-06) were purchased from Trevigen, Inc. PARP2 (Cat. No. ALX-201-064-C020) was purchased from Alexis Biochemical.”
The autoparsylation activity of the TNKS 1/2 or PARP1/2 enzymes was measured by the liquid chromatography-mass spectrometry (LC/MS) detection of nicotinamide as readout. Compound activity in inhibiting the TNKS and PARP autoparsylation was evaluated by IC50 measurements. […] For the background control wells, 10 μL of the 5× quenching solution per well was added prior to the addition of β-NAD^+. The % Inhibition was calculated as: (Control−Sample)/(Control−Background)*100.

Chain of human tankyrase 1 PARP catalytic domain, TNKS1P (O95271 1112-1317): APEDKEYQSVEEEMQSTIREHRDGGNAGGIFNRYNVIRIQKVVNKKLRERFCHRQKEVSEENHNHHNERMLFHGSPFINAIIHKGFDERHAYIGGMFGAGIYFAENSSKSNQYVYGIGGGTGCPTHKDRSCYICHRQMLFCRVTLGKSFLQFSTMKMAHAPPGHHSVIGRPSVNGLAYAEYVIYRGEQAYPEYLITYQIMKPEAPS

Row | Compound | IC50 [1] | IC50 [2] | AC50 (Axin2 protein) | HSV viral growth [3] | HSV viral protein expression [3] | IC50 (PARP2)
1 | O=C(CCc1ccccc1)N(Cc1nc2c(c(=O)[nH]1)COCC2)Cc1cccs1 [Example 1] | 1.15 ± 0.02 µM | > 10 µM | > 10 µM |  |  | 
2 | O=C(CCc1ccc(F)cc1)N(Cc1nc2c(c(=O)[nH]1)COCC2)Cc1cccs1 [Example 2, 3-(4-Fluoro-phenyl)-N-(4-oxo-3,5,7,8-tetrahydro-4H-pyrano[4,3-d]pyrimidin-2-ylmethyl)-N-thiophen-2-ylmethyl-propionamide] | 0.299 ± 0.026 µM | > 10 µM | 8.2 ± 0.3 µM |  |  | 
3 | O=C(CCc1ccccc1F)N(Cc1nc2c(c(=O)[nH]1)COCC2)Cc1cccs1 [Example 4, 3-(2-Fluoro-phenyl)-N-(4-oxo-3,5,7,8-tetrahydro-4H-pyrano[4,3-d]pyrimidin-2-ylmethyl)-N-thiophen-2-ylmethyl-propionamide] | 0.271 ± 0.045 µM | 8.74 µM | 4.1 ± 2.1 µM |  |  | 
4 | O=C(CCc1cccc(O)c1)N(Cc1nc2c(c(=O)[nH]1)COCC2)Cc1cccs1 [Example 7, 3-(3-Hydroxy-phenyl)-N-(4-oxo-3,5,7,8-tetrahydro-4H-pyrano[4,3-d]pyrimidin-2-ylmethyl)-N-thiophen-2-ylmethyl-propionamide] | 1.02 ± 0.003 µM | > 10 µM | > 10 µM |  |  | 
5 | Oc1nc(-c2ccc(C(F)(F)F)cc2)nc2c1CSCC2 [XAV939] |  |  |  | decreased viral growth | suppressed HSV viral protein expression | 
6 | N-((4-0xo-4,5,7,8-tetrahydro-3H-pyrano[4,3-d]pyrimidin-2-yl)methyl)-3-phenyl-N-(thiophen-3-ylmethyl)propanamide [Example 18] | 5.17 ± 0.46 µM |  |  |  |  | 10.4 ± 0.8 µM
